Measured values published in ChEMBL document CHEMBL5518160, “Progress in the development of TRPV1 small-molecule antagonists: Novel Strategies for pain management” (Eur J Med Chem, 2023).
Each block holds one compound with its values, some of them ahead of it.

Key:
[1] = biological target: T1, Transient receptor potential cation channel subfamily V member 1 (Homo sapiens, UniProt Q8NER1); assay: Antagonist activity at human TRPV1 assessed as inhibition of capsaicin-induced increase in intracellular Ca2+ level; assay type: cell-based
[2] = biological target: T1, Transient receptor potential cation channel subfamily V member 1; assay: Binding affinity to human TRPV1 assessed as inhibition constant
[3] = biological target: T1, Transient receptor potential cation channel subfamily V member 1; assay: Antagonist activity at human TRPV1
[4] = biological target: T1, Transient receptor potential cation channel subfamily V member 1; assay: Antagonist activity at human TRPV1 expressed in HEK293 cells assessed as inhibition of capsaicin-induced increase in intracellular Ca2+ level by FLIPR-based Ca2+ assay; assay type: cell-based
[5] = biological target: T2, Transient receptor potential cation channel subfamily V member 1 (Rattus norvegicus, UniProt O35433); assay: Antagonist activity at rat TRPV1 assessed as inhibition of pH-induced increase in intracellular Ca2+ level; assay type: cell-based
[6] = biological target: T1, Transient receptor potential cation channel subfamily V member 1; assay: Antagonist activity at human TRPV1 assessed as inhibition of pH-induced increase in intracellular Ca2+ level; assay type: cell-based
[7] = Antagonist activity at Xenopus oocytes TRPV1 assessed as inhibition of capsaicin-induced increase in intracellular Ca2+ level; assay type: cell-based; conditions: Xenopus laevis
[8] = biological target: T2, Transient receptor potential cation channel subfamily V member 1; assay: Antagonist activity at rat TRPV1 expressed in CHO cells assessed as inhibition of pH-induced increase in intracellular Ca2+ level by fluorescence based analysis; assay type: cell-based
[9] = biological target: T1, Transient receptor potential cation channel subfamily V member 1; assay: Antagonist activity at capsaicin-induced human TRPV1 activation
[10] = species on record: Mus musculus; assay: Antipruritic effect in mouse assessed as reduction in histamine-induced itching duration relative to control; assay type: functional; design: scale not given: the % may be the effect or the level left
[11] = biological target: T3, Prostaglandin G/H synthase 2 (Homo sapiens, UniProt P35354); assay: Inhibition of COX-2 (unknown origin)
T3 sequence (P35354 whole entry): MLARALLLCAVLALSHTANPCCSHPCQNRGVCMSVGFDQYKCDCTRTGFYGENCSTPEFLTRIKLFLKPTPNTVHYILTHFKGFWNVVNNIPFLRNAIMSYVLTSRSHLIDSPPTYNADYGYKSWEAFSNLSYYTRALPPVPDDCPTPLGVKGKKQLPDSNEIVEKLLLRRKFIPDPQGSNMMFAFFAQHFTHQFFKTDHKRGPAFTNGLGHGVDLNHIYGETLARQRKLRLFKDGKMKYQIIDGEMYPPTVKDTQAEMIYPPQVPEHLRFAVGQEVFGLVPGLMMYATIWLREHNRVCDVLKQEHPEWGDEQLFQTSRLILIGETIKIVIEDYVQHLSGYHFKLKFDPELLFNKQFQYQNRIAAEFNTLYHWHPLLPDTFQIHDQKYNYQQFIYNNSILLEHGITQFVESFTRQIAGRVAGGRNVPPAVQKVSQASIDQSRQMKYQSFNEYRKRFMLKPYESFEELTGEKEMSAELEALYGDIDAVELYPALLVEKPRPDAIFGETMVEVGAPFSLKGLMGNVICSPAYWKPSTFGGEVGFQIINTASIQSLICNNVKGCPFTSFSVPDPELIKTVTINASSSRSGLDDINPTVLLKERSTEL

[12] = biological target: T1, Transient receptor potential cation channel subfamily V member 1; assay: Antagonist activity at human TRPV1 assessed as inhibition of AITC-induced increase in intracellular Ca2+ level; assay type: cell-based
[13] = biological target: T1, Transient receptor potential cation channel subfamily V member 1; assay: Antagonist activity at human TRPV1 expressed in HEK293 cells assessed as inhibition of capsaicin-induced Ca2+ influx by fluorescence based assay; assay type: cell-based
[14] = biological target: T1, Transient receptor potential cation channel subfamily V member 1; assay: Antagonist activity at human TRPV1 expressed in HEK293 cells assessed as inhibition of capsaicin-induced increase in intracellular Ca2+ level incubated for 2 mins by scintillation counter analysis; assay type: cell-based
[15] = biological target: T1, Transient receptor potential cation channel subfamily V member 1; assay: Antagonist activity at human TRPV1 expressed in HEK293 cells assessed as inhibition of NADA-induced increase in intracellular Ca2+ level incubated for 2 mins by scintillation counter analysis; assay type: cell-based
[16] = biological target: T2, Transient receptor potential cation channel subfamily V member 1; assay: Inhibition of rat TRPV1 assessed as inhibition of capsaicin-induced increase in intracellular Ca2+ level; assay type: cell-based

T1 sequence (Q8NER1 whole entry): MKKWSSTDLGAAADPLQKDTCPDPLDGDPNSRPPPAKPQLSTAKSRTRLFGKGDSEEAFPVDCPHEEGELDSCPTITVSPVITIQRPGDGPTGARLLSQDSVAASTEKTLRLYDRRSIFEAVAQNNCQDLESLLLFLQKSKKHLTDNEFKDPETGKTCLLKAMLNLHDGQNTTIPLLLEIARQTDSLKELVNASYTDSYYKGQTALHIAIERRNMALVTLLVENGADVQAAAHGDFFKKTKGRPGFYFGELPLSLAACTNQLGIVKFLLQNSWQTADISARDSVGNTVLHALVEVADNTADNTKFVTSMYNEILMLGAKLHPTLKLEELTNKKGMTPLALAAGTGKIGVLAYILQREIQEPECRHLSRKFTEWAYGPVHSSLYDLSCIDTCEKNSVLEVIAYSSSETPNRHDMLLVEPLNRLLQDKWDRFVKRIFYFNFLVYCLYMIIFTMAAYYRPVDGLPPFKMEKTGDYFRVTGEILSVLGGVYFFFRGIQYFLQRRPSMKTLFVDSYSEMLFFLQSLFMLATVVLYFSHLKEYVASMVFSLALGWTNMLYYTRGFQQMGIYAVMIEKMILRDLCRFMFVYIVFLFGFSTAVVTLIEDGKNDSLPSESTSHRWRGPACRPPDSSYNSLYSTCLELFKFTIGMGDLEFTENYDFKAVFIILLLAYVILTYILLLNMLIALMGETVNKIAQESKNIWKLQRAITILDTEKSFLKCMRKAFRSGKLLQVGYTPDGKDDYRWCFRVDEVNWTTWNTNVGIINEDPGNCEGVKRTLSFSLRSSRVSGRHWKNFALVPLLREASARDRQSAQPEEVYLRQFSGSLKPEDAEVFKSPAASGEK
T2 sequence (O35433 whole entry): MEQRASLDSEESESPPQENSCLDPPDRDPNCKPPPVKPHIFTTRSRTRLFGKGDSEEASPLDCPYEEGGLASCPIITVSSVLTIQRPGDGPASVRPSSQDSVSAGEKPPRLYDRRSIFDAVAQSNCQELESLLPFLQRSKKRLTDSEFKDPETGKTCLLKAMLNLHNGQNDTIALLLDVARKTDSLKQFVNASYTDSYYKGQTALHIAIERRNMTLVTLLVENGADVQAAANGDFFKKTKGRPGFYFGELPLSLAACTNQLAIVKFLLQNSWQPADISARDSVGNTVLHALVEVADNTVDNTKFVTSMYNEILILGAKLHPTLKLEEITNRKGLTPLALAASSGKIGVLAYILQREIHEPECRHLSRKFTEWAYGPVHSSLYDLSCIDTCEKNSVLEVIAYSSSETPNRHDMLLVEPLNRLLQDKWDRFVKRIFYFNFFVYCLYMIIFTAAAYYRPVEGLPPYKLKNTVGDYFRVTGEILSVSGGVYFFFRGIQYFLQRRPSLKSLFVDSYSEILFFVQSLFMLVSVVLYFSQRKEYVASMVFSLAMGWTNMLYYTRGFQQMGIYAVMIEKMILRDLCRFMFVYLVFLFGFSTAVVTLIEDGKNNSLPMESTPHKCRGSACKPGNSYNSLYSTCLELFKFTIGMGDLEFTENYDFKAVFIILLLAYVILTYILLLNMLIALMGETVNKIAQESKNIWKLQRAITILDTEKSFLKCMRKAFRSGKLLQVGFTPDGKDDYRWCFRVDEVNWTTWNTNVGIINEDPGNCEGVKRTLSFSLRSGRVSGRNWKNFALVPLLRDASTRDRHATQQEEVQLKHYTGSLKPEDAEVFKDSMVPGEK

Structure (SMILES): CN(C)C1(Cc2ccccc2)CCN(c2cc(C(F)(F)F)ccc2CNC(=O)Nc2cccc3ncccc23)CC1
Ki [2]: 32 nM | IC50 [3]: 10.8 nM

Structure (SMILES): C[C@H]1O[C@H](O[C@H]2[C@H](Oc3cc(O)c4c(c3)O[C@H](c3ccc(O)cc3)CC4=O)O[C@H](CO)[C@@H](O)[C@@H]2O)[C@H](O)[C@@H](O)[C@H]1O
IC50 [7]: 33300 nM

Structure (SMILES): CCCCCCCCCCCC(=O)OCC(=O)NCc1cc(OC)c(O)cc1I
Activity [10]: <1%

Structure (SMILES): O=C1C[C@@H](c2ccc(O[C@@H]3O[C@H](CO)[C@@H](O)[C@H](O)[C@H]3O)cc2)Oc2cc(O)ccc21 [LIQUIRITIN]
IC50 [1]: 9800 nM | IC50 [12]: 16200 nM

Structure (SMILES): COc1cc(CNC(=O)COC(=O)/C=C(\C)CC=C(C)C)c(I)cc1O
IC50 [1]: 90 nM

Structure (SMILES): C=Cc1cc([C@@H](C)NC(=O)/C(C)=C/c2ccc(C(C)(C)C)cc2)ccc1NS(C)(=O)=O
IC50 [13]: 22 nM

The remaining lines, values ahead:

IC50 [1]: 2.6 nM
Structure (SMILES): CC1CCN(c2nc(C(F)(F)F)ccc2CNC(=O)Cc2c(F)cccc2Cl)CC1

IC50 [4]: 3 nM | IC50 [5]: 6 nM
Structure (SMILES): O=C(Nc1ccccc1Br)N[C@@H]1CCN(c2ccc(C(F)(F)F)cn2)C1 [SB-705498]

IC50 [1]: 84 nM | IC50 [6]: 313 nM
Structure (SMILES): O=C(Nc1ccc(Br)cc1)[C@@H]1CCCN1C(=O)Nc1cccc2cnccc12

IC50 [1]: 45000 nM
Structure (SMILES): O=C(C(c1ccccc1)N1C(=O)CCC1=O)N1CCN(c2cccc(C(F)(F)F)c2)CC1 (stereo unspecified)

IC50 [8]: 140 nM
Structure (SMILES): O=C1/C(=N\Nc2ccccc2)C(C(F)(F)C(F)(F)F)=NN1c1ccccc1

IC50 [9]: 9.8 nM
Structure (SMILES): Cc1cc(C)nc(NC(=O)N2CCN(Cc3ccccc3N3CCCC3)CC2)c1

IC50 [11]: 11 nM
Structure (SMILES): COc1cc(C(=O)NS(=O)(=O)c2ccc(-n3nc(C(F)(F)F)cc3-c3ccc(C)cc3)cc2)ccc1O

IC50 [14]: 19 nM | IC50 [15]: 7 nM
Structure (SMILES): CCC1(CC)CC(NC(=O)Nc2cccc3c(C)nccc23)c2cc(F)ccc2O1 (stereo unspecified)

IC50 [16]: 140 nM | IC50 [11]: 23 nM
Structure (SMILES): COc1cc(/C=C/C(=O)NS(=O)(=O)c2ccc(-n3nc(C(F)(F)F)cc3-c3ccc(C)cc3)cc2)ccc1O
